Assay results published in patent US10899753B2, “Inhibiting agents for Bruton's tyrosine kinase” (BIOGEN MA INC., priority 2018, dated 2021).

What was measured:
[1] = target: T1, BTK (Homo sapiens (Human), UniProt Q06187); assay: In Vitro BTK Kinase Assay: BTK-POLYGAT-LS ASSAY; assay type: biochemical; conditions: fluorescein-labeled polyGAT peptide 100 nM, BTK enzyme 0.25 nM, 30 minutes, TRF
Procedure: In Vitro BTK Kinase Assay: BTK-POLYGAT-LS ASSAY
The purpose of the BTK in vitro assay is to determine compound potency against BTK through the measurement of IC50. […] For a typical assay, a […] aliquot of a ATP/peptide master mix (final concentration; ATP […], polyGAT 100 nM) in kinase buffer (10 mM Tris-HCl pH 7.5, 10 mM MgCl2, 200 μM Na3PO4, 5 mM DTT, 0.01% Triton X-100, and 0.2 mg/ml casein) is added to each well. […] The assay is incubated for 30 minutes before being stopped with 28 μL of a 50 mM EDTA solution. […] The plate is covered and incubated for 45 minutes at room temperature. Time resolved fluorescence (TRF) on Molecular Devices M5 (332 nm excitation; 488 nm emission; 518 nm fluorescein emission) is measured.

[2] = target: T1, BTK; assay: In Vitro PD Assay in Human Whole Blood (pBTK assay); assay type: cell-based; conditions: human heparinized whole blood, 37° C. for 30 min, total BTK capture and phosphotyrosine detection (ECL)
Procedure: In Vitro PD Assay in Human Whole Blood
Human heparinized venous blood was purchased from Bioreclamation, Inc. or SeraCare Life Sciences and shipped overnight. Whole blood was aliquoted into 96-well plate and “spiked” with serial dilutions of test compound in DMSO or with DMSO without drug. The final concentration of DMSO in all wells was 0.1%. The plate was incubated at 37° C. for 30 min. Lysis buffer containing protease and phosphatase inhibitors was added to the drug-containing samples and one of the DMSO-only samples (+PPi, high control), while lysis buffer containing protease inhibitors was added to the other DMSO-only samples (−PPi, low control). All of the lysed whole blood samples were subjected to the total BTK capture and phosphotyrosine detection method described in US20160311802, incorporated herein by reference.

T1 sequence (Q06187 whole entry): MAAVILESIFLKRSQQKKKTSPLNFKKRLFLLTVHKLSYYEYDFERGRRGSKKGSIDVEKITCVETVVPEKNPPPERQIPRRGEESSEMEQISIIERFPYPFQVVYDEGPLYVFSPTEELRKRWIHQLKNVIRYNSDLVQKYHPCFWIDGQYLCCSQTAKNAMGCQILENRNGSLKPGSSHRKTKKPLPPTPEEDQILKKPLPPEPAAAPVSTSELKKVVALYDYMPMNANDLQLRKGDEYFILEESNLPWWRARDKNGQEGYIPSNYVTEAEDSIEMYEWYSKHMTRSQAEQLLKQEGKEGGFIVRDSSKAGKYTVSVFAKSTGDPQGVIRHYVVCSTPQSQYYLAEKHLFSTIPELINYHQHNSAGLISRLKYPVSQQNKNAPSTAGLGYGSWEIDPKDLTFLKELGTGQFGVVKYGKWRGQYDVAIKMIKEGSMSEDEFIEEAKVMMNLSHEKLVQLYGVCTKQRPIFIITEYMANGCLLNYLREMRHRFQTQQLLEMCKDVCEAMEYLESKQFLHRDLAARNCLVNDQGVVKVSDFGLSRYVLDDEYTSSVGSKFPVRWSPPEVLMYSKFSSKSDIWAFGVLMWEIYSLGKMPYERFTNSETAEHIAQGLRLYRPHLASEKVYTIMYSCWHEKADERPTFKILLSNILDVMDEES

| Compound | IC50 [1] [nM] | IC50 [2] [nM] |
| --- | --- | --- |
| Cc1cc(-c2ncnc(Nc3ccn(C)n3)n2)ccc1CNC(=O)c1noc(C(C)(C)CF)n1 [Compound 44, 5-(1-fluoro-2-methylpropan-2-yl)-N-(2-methyl-4-(4-((1-methyl-1H-pyrazol-3-yl)amino)-1,3,5-triazin-2-yl)benzyl)-1,2,4-oxadiazole-3-carboxamide] | 1 to 10 | 100 to 500 |
| Cc1c(CNC(=O)c2noc(C(C)(C)CF)n2)ccc(-c2ncnc(Nc3ccn(C)n3)n2)c1F [Compound 45, N-(3-fluoro-2-methyl-4-(4-((1-methyl-1H-pyrazol-3-yl)amino)-1,3,5-triazin-2-yl)benzyl)-5-(1-fluoro-2-methylpropan-2-yl)-1,2,4-oxadiazole-3-carboxamide] | < 1 | 100 to 500 |
| Cc1c(CNC(=O)c2nc(C3(CF)CC3)no2)ccc(-c2ncnc(Nc3ccn(C)n3)n2)c1F [Compound 46, N-(3-fluoro-2-methyl-4-(4-((1-methyl-1H-pyrazol-3-yl)amino)-1,3,5-triazin-2-yl)benzyl)-3-(1-(fluoromethyl)cyclopropyl)-1,2,4-oxadiazole-5-carboxamide] | 1 to 10 | 500 to 10000 |
| Cc1c(CNC(=O)c2nc(C3(CF)CC3)no2)ccc(-c2ncnc(Nc3cnn(C)c3)n2)c1F [Compound 47, N-(3-fluoro-2-methyl-4-(4-((1-methyl-1H-pyrazol-4-yl)amino)-1,3,5-triazin-2-yl)benzyl)-3-(1-(fluoromethyl)cyclopropyl)-1,2,4-oxadiazole-5-carboxamide] | < 1 | < 100 |
| Cc1cc(-c2ncnc(Nc3cnn(C)c3)n2)ccc1CNC(=O)c1nc(C2(CF)CC2)no1 [Compound 48, 3-(1-(fluoromethyl)cyclopropyl)-N-(2-methyl-4-(4-((1-methyl-1H-pyrazol-4-yl)amino)-1,3,5-triazin-2-yl)benzyl)-1,2,4-oxadiazole-5-carboxamide] | < 1 | 100 to 500 |
| Cc1cc(-c2ncnc(Nc3cnn(C)c3)n2)ccc1CNC(=O)c1noc(C2(CF)CC2)n1 [Compound 49, 5-(1-(fluoromethyl)cyclopropyl)-N-(2-methyl-4-(4-((1-methyl-1H-pyrazol-4-yl)amino)-1,3,5-triazin-2-yl)benzyl)-1,2,4-oxadiazole-3-carboxamide] | < 1 | 100 to 500 |
| Cc1c(CNC(=O)c2noc(C3(CF)CC3)n2)ccc(-c2ncnc(Nc3cnn(C)c3)n2)c1F [Compound 50, N-(3-fluoro-2-methyl-4-(4-((1-methyl-1H-pyrazol-4-yl)amino)-1,3,5-triazin-2-yl)benzyl)-5-(1-(fluoromethyl)cyclopropyl)-1,2,4-oxadiazole-3-carboxamide] | < 1 | < 100 |
| Cc1cc(-c2ncnc(Nc3cnn(C)c3)n2)c(F)cc1CNC(=O)c1noc(C2(CF)CC2)n1 [Compound 51, N-(5-fluoro-2-methyl-4-(4-((1-methyl-1H-pyrazol-4-yl)amino)-1,3,5-triazin-2-yl)benzyl)-5-(1-(fluoromethyl)cyclopropyl)-1,2,4-oxadiazole-3-carboxamide] | < 1 | 100 to 500 |
| Cc1c(CNC(=O)c2noc(C3(C(F)(F)F)CC3)n2)ccc(-c2ncnc(Nc3ccn(C)n3)n2)c1F [Compound 52, N-(3-fluoro-2-methyl-4-(4-((1-methyl-1H-pyrazol-3-yl)amino)-1,3,5-triazin-2-yl)benzyl)-5-(1-(trifluoromethyl)cyclopropyl)-1,2,4-oxadiazole-3-carboxamide] | 1 to 10 | 500 to 10000 |
| Cn1ccc(Nc2ncnc(-c3ccc4c(c3)CCCC[C@H]4NC(=O)c3noc(C(C)(C)CF)n3)n2)n1 [Compound 53, (R)-5-(1-fluoro-2-methylpropan-2-yl)-N-(2-(4-((1-methyl-1H-pyrazol-3-yl)amino)-1,3,5-triazin-2-yl)-6,7,8,9-tetrahydro-5H-benzo[7]annulen-5-yl)-1,2,4-oxadiazole-3-carboxamide] | < 1 | 100 to 500 |
| Cn1ccc(Nc2ncnc(-c3ccc(CNC(=O)c4noc(C(C)(C)CF)n4)c(C4CC4)c3)n2)n1 [Compound 54, N-(2-cyclopropyl-4-(4-((1-methyl-1H-pyrazol-3-yl)amino)-1,3,5-triazin-2-yl)benzyl)-5-(1-fluoro-2-methylpropan-2-yl)-1,2,4-oxadiazole-3-carboxamide] | < 1 | 100 to 500 |
| Cn1ccc(Nc2ncnc(-c3ccc(CNC(=O)c4nc(C(C)(C)C)no4)c(C4CC4)c3F)n2)n1 [Compound 55, 3-(tert-butyl)-N-(2-cyclopropyl-3-fluoro-4-(4-((1-methyl-1H-pyrazol-3-yl)amino)-1,3,5-triazin-2-yl)benzyl)-1,2,4-oxadiazole-5-carboxamide] | < 1 | 500 to 10000 |
| Cc1cc(-c2ncnc(Nc3cnn(C)c3)n2)c(F)cc1CNC(=O)c1noc(C(C)(C)C)n1 [Compound 56, 5-(tert-butyl)-N-(5-fluoro-2-methyl-4-(4-((1-methyl-1H-pyrazol-4-yl)amino)-1,3,5-triazin-2-yl)benzyl)-1,2,4-oxadiazole-3-carboxamide] | < 1 | 100 to 500 |
| Cc1cc(-c2ncnc(Nc3cnn(C)c3)n2)c(F)cc1CNC(=O)c1nc(C(C)(C)C)no1 [Compound 57, 3-(tert-butyl)-N-(5-fluoro-2-methyl-4-(4-((1-methyl-1H-pyrazol-4-yl)amino)-1,3,5-triazin-2-yl)benzyl)-1,2,4-oxadiazole-5-carboxamide] | < 1 | 100 to 500 |
| Cc1cc(-c2ncnc(Nc3cnn(C)c3)n2)c(F)cc1CNC(=O)c1nnn(C(C)(C)C)n1 [Compound 58, 2-(tert-butyl)-N-(5-fluoro-2-methyl-4-(4-((1-methyl-1H-pyrazol-4-yl)amino)-1,3,5-triazin-2-yl)benzyl)-2H-tetrazole-5-carboxamide] | < 1 | 100 to 500 |
| Cc1cc(-c2ncnc(Nc3cnn(C)c3)n2)c(F)cc1CNC(=O)c1noc(C2(C)CC2)n1 [Compound 59, N-(5-fluoro-2-methyl-4-(4-((1-methyl-1H-pyrazol-4-yl)amino)-1,3,5-triazin-2-yl)benzyl)-5-(1-methylcyclopropyl)-1,2,4-oxadiazole-3-carboxamide] | < 1 | 100 to 500 |
| Cc1cc(-c2ncnc(Nc3cnn(C)c3)n2)c(F)cc1CNC(=O)c1nc(C2(CF)CC2)no1 [Compound 60, N-(5-fluoro-2-methyl-4-(4-((1-methyl-1H-pyrazol-4-yl)amino)-1,3,5-triazin-2-yl)benzyl)-3-(1-(fluoromethyl)cyclopropyl)-1,2,4-oxadiazole-5-carboxamide] | < 1 | 100 to 500 |
| Cc1cc(-c2ncnc(Nc3cnn(C)c3)n2)c(F)cc1CNC(=O)c1cnn(C(C)(C)C)c1 [Compound 61, 1-(tert-butyl)-N-(5-fluoro-2-methyl-4-(4-((1-methyl-1H-pyrazol-4-yl)amino)-1,3,5-triazin-2-yl)benzyl)-1H-pyrazole-4-carboxamide] | < 1 | 100 to 500 |
| Cc1cc(-c2ncnc(Nc3cnn(C)c3)n2)c(F)cc1CNC(=O)c1cn(C(C)(C)C)nn1 [Compound 62, 1-(tert-butyl)-N-(5-fluoro-2-methyl-4-(4-((1-methyl-1H-pyrazol-4-yl)amino)-1,3,5-triazin-2-yl)benzyl)-1H-1,2,3-triazole-4-carboxamide] | 1 to 10 | 500 to 10000 |
| Cc1cc(-c2ncnc(Nc3cnn(C)c3)n2)c(F)cc1CNC(=O)c1cc(C(C)(C)C)no1 [Compound 63, 3-(tert-butyl)-N-(5-fluoro-2-methyl-4-(4-((1-methyl-1H-pyrazol-4-yl)amino)-1,3,5-triazin-2-yl)benzyl)isoxazole-5-carboxamide] | < 1 | 500 to 10000 |
| Cc1cc(-c2ncnc(Nc3cnn(C)c3)n2)c(F)cc1CNC(=O)c1cc(C(C)(C)C)on1 [Compound 64, 5-(tert-butyl)-N-(5-fluoro-2-methyl-4-(4-((1-methyl-1H-pyrazol-4-yl)amino)-1,3,5-triazin-2-yl)benzyl)isoxazole-3-carboxamide] | < 1 | 500 to 10000 |
| Cc1cc(-c2ncnc(Nc3cnn(C)c3)n2)c(F)cc1CNC(=O)c1coc(C(C)(C)C)n1 [Compound 65, 2-(tert-butyl)-N-(5-fluoro-2-methyl-4-(4-((1-methyl-1H-pyrazol-4-yl)amino)-1,3,5-triazin-2-yl)benzyl)oxazole-4-carboxamide] | < 1 | 500 to 10000 |
| Cn1ccc(Nc2ncnc(-c3ccc(CNC(=O)c4nc(C(C)(C)C)no4)c(C(F)F)c3F)n2)n1 [Compound 66, 3-(tert-butyl)-N-(2-(difluoromethyl)-3-fluoro-4-(4-((1-methyl-1H-pyrazol-3-yl)amino)-1,3,5-triazin-2-yl)benzyl)-1,2,4-oxadiazole-5-carboxamide] | 1 to 10 | 500 to 10000 |
